According to patent US11497731B2, “β-lactamase inhibitor” (NATIONAL UNIVERSITY CORPORATION TOKAI NATIONAL HIGHER …, priority 2018, dated 2022):
≈ marks a conversion by molar mass, not a printed value. Where two headings read alike, the source gives them in different places.

Assays:
[1] = biological target: IMP-1 (Serratia marcescens, UniProt P52699); test: Inhibition constant (Ki) measurement test, IMP-1; format: biochemical
Experimental: (§1) The inhibition constant (Ki) measurement test was performed in the following manner. The inhibition constant (Ki) was measured using various metallo-β-lactamases (final concentration: 10 nM). The imipenem decomposition activity (Δabs/min) at each point under the conditions of absorbance: 298 nm and temperature: 30° C. was measured by varying the concentration of imipenem as a substrate and the concentrations of test substances (compounds A to E) as inhibitors. Each measured value was fitted to the Lineweaver-Burk plot equation to calculate Ki.
(§2) The test was performed in the same manner as in Test Example 6, except that X2a, X2b, X2c, X2d, X3a, and X4 were used as test substances (inhibitors).

[2] = biological target: NDM-1 (Klebsiella pneumoniae, UniProt C7C422); test: Inhibition constant (Ki) measurement test, NDM-1; format: biochemical
Chain of NDM-1 (C7C422 29-270, looked up, species assumed): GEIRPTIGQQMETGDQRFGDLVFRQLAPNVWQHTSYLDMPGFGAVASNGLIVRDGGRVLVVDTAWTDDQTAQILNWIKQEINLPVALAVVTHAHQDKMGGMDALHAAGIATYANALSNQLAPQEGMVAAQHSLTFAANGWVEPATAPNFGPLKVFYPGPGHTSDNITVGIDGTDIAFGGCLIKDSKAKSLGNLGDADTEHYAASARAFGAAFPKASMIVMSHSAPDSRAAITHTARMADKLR
Experimental: as §1, §2

[3] = biological target: VIM-2 (Escherichia coli, UniProt Q5U7L7); test: Inhibition constant (Ki) measurement test, VIM-2; format: biochemical
Experimental: as §1, §2

[4] = tested on: bacteria into which a plasmid encoding IMP-1 was introduced (pBCSK (+)/E. coli DH5a); test: Drug susceptibility test (MIC), IMP-1-producing strain; format: cell-based; conditions: for Meropenem MIC IMP1-producing strain: MIC of meropenem with inhibitor 10 μg/mL; for MIC: Escherichia coli
[5] = tested on: bacteria into which a plasmid encoding NDM-1 was introduced (pBCSK (+)/E. coli DH5a); test: Drug susceptibility test (MIC), NDM-1-producing strain; format: cell-based; conditions: for Meropenem MIC NDM-1-producing strain: MIC of meropenem with inhibitor 10 μg/mL; for MIC: Escherichia coli
Experimental: (§3) Plates for drug susceptibility test measurement were prepared by using 96- or 384-well U-bottom plates, a Mueller-Hinton liquid medium, and antimicrobial drugs (ceftazidime (CAZ), imipenem (IPM), meropenem (MPM), doripenem (DPM), and biapenem (BPM)). A 1/2 antimicrobial drug dilution series was made up to well 11 of, for example, a 96-well U-bottom plate so that the leftmost well 1 of row A contained an antimicrobial drug at the maximum concentration, the antimicrobial drug concentration in well 2 to the right of well 1 was 1/2 of the maximum concentration, the antimicrobial drug concentration in well 3 to the right of well 2 was 1/4 of the maximum concentration, and so on. […] An antimicrobial drug dilution series was made in each of rows B and C in the same manner as in row A. Further, 10 μg/mL and 50 μg/mL of a test substance (compound A) were added to row B and row C, respectively (FIG. 1).
(§4) Bacteria into which a plasmid encoding a class B β-lactamase (metallo-β-lactamase (MBL): NDM-1, or VIM-2) was introduced (pBCSK (+)/E. coli DH5a) were used as test bacteria. The test bacteria were adjusted to 10^8 cfu/mL with a Mueller-Hinton medium. Further, the test bacteria were diluted 10-fold with a Mueller-Hinton medium (10^7 cfu/mL). 5 μl of the test bacteria was collected and inoculated into the plates for drug susceptibility test measurement. After overnight culture at 35° C., the growth of the test bacteria was visually checked. The concentration of the antimicrobial drug in a well containing the lowest concentration of the antimicrobial drug among the wells in which no growth of the test bacteria was confirmed was defined as the minimal inhibitory concentration value (FIG. 1).
(§5) The drug susceptibility test was performed in the same manner as in Test Example 1, except that compounds A to C and E to I were used as test substances.
(§6) The test was performed in the same manner as in Test Example 1, except that X2a, X2b, X2c, X2d, X3a, and X4 were used as test substances (inhibitors). The inhibitor concentration was 10 μg/mL.

[6] = tested on: bacteria into which a plasmid encoding VIM-2 was introduced (pBCSK (+)/E. coli DH5a); test: Drug susceptibility test (MIC), VIM-2-producing strain; format: cell-based; conditions: for Ceftazidime MIC VIM-2-producing strain: MIC of ceftazidime with inhibitor 10 μg/mL; for MIC: Escherichia coli
Experimental: as §3, §4, §5, §6

[7] = tested on: β-lactamase-producing bacteria; test: Drug susceptibility tests, summary statements over all strains; format: cell-based, E. coli; conditions: addition of the compound
Experimental: as §3, §4

[8] = tested on: β-lactamase; test: Inhibition constant (Ki) tests, summary statements over all enzymes; format: biochemical
Experimental: as §1, §2

[9] = biological target: metallo-β-lactamase (IMP-1) (Serratia marcescens, UniProt P52699); test: Enzyme activity measurement test (imipenem decomposition); format: biochemical
Chain of metallo-β-lactamase (IMP-1) (P52699 19-246, looked up, species assumed): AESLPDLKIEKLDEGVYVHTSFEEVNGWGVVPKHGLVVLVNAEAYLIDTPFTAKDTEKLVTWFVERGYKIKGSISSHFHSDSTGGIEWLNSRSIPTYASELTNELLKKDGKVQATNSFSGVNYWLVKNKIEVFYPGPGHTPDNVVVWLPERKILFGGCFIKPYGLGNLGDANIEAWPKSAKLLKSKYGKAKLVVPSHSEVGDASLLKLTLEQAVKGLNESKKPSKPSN
Experimental: A metallo-β-lactamase (IMP-1) (final concentration: 10 nM), and imipenem (final concentration: 100 μM) as a substrate were used. The imipenem decomposition activity (Dabs/min) at each point under the conditions of absorbance: 298 nm and temperature: 30° C. was measured by varying the concentrations of test substances (compounds Nos. 9-7, 9-8, and 9-9) as inhibitors (0 μM, 10 μM, and 100 μM). The activity when no test substance was added was defined as 100%, and the relative activity value when each test substance was individually added was calculated.

[10] = tested on: Empty vector (no class B lactamase produced), pBCSK (+)/E. coli DH5a; test: Drug susceptibility test (MIC), empty vector strain; format: cell-based; conditions: Escherichia coli
[11] = tested on: bacteria (K. pneumoniae) in which a plasmid encoding NDM and VIM was introduced; test: Mouse abdominal infection model, K. pneumoniae NDM and VIM strain; format: in vivo, mice; conditions: antimicrobial drug 2 mg/kg or 8 mg/kg, test substance 10 mg/kg
Experimental: The laboratory strain grown overnight on a Mueller-Hinton agar medium was scraped with a sterile swab, suspended in physiological saline, adjusted to 2-5×10^8 CFU/mL, and mixed with an equal amount of a 10% mucin solution (1-2.5×10^8 CFU/mL) to prepare a bacterial liquid. Mice (Crl:CD1(ICR), male, 4 weeks old (Charles River Laboratories Japan, Inc.)) acclimated for 4 days after arrival were weighed, and then infected by intraperitoneal administration of 250 μL of the prepared bacterial liquid per mouse. An antimicrobial drug (meropenem trihydrate (WAKO 137-15674)) and the test substance were dissolved in physiological saline. A first intraperitoneal administration of the antimicrobial drug (0.2 mg/kg) and/or the test substance (100 mg/kg) was performed 1 hour after infection. A second administration was performed 3 hours after infection, in the same manner as the first administration (up to this point, day 0).
The animal study was performed in the same manner as in Test Example 12, except that in addition to a strain of Escherichia coli in which a plasmid encoding a class B lactamase (IMP-1) was introduced, bacteria (K. pneumoniae) in which a plasmid encoding NDM and VIM was introduced were used as a laboratory strain, compound I was administered as a test substance, […], and the dosage of the test substance was 10 mg/kg. […]

[12] = imipenem substrate, enzyme 10 nM, 30° C., Lineweaver-Burk, read-out: Inhibition constant Ki IMP-1
[13] = imipenem substrate, enzyme 10 nM, 30° C., Lineweaver-Burk, read-out: Inhibition constant Ki NDM-1
[14] = imipenem substrate, enzyme 10 nM, 30° C., Lineweaver-Burk, read-out: Inhibition constant Ki VIM-2
[15] = Test Example 11, same manner as Test Example 6, read-out: Enzymatic Inhibition Effect Ki IMP-1
[16] = Test Example 11, same manner as Test Example 6, read-out: Enzymatic Inhibition Effect Ki NDM-1
[17] = Test Example 11, same manner as Test Example 6, read-out: Enzymatic Inhibition Effect Ki VIM-2
[18] = meropenem alone, no test substance added, Table 2

Chain of IMP-1 (P52699 19-246, looked up, species assumed): as above

Row | SMILES | Ki [1, 12] | Ki [2, 13] | Ki [3, 14] | Meropenem MIC IMP1-producing strain [4] | Meropenem MIC NDM-1-producing strain [5] | Ceftazidime MIC VIM-2-producing strain [6] | Ki [1, 15] | Ki [2, 16] | Ki [3, 17] | effect on MICs of the antimicrobial drugs (statement on Tables 1, 2, 4) [7] | β-lactamase activity inhibition (statement on Tables 2, 5) [8] | further results
1 | NS(=O)(=O)c1sccc1C(=O)O [B] | 34.1 µM | 7.68 µM | 15.5 µM | – | – | – | – | – | – | – | – | –
2 | CCCc1oc(CCC)c(S(N)(=O)=O)c1C(=O)O [Compound G] | 0.38 µM | 0.29 µM | 0.46 µM | – | – | – | – | – | – | – | – | –
3 | CCc1c(C(=O)O)c(S(N)(=O)=O)c(-c2ccccc2)n1C [Compound X2c] | – | – | – | 0.031 mg/L | 0.5 mg/L | 1 mg/L | 1.24 µM | 1.5 µM | 0.019 µM | decreases the MICs | inhibits β-lactamase activity | –
4 | CCc1ccccc1CNS(=O)(=O)c1c(C)oc(C)c1C(=O)O [9-9] | – | – | – | – | – | – | – | – | – | – | – | β-lactamase activity inhibition (statement on Table 3) [9]: inhibits β-lactamase activity
5 | CCc1c(C(=O)O)c(S(N)(=O)=O)c(C)n1C [Compound X2a] | – | – | – | 0.031 mg/L | 0.0625 mg/L | 1 mg/L | 1.77 µM | 1.83 µM | 0.023 µM | decreases the MICs | inhibits β-lactamase activity | –
6 | CC(C)(O/N=C(\C(=O)N[C@@H]1C(=O)N2C(C(=O)[O-])=C(C[n+]3ccccc3)CS[C@H]12)c1csc(N)n1)C(=O)O [CAZ, ceftazidime, reference compound] | – | – | – | – | – | – | – | – | – | – | – | MIC ([4]; read-out: MIC CAZ): 256 mg/L (≈ 468 µM); MIC ([5]; read-out: MIC CAZ): > 1020 mg/L; MIC ([6]; read-out: Ceftazidime MIC VIM-2-producing strain, No inhibitor): 16 mg/L (≈ 29.3 µM); MIC ([6]; read-out: MIC CAZ): 4 mg/L (≈ 7.32 µM); MIC VIM-2 ceftazidime, None ([6]; ceftazidime alone, no test substance added, Table 2): 16 mg I^−1; MIC ([10]; read-out: MIC CAZ): 0.25 mg/L (≈ 0.457 µM)
7 | CCc1c(S(N)(=O)=O)c(C(=O)O)c(C)n1C [Compound X2b] | – | – | – | 0.031 mg/L | 0.0625 mg/L | 1 mg/L | 0.98 µM | 1.73 µM | 0.1 µM | decreases the MICs | inhibits β-lactamase activity | –
8 | NS(=O)(=O)c1sc(Cl)cc1C(=O)O [C] | 19.1 µM | 19.3 µM | 2.29 µM | – | – | – | – | – | – | – | – | –
9 | Cc1oc(C)c(S(=O)(=O)N2CCC(C)(C)C2)c1C(=O)O [9-8] | – | – | – | – | – | – | – | – | – | – | – | β-lactamase activity inhibition (statement on Table 3) [9]: inhibits β-lactamase activity
10 | CCc1oc(CC)c(S(N)(=O)=O)c1C(=O)O [Compound F] | 0.3 µM | 0.92 µM | 1.01 µM | – | – | – | – | – | – | – | – | –
11 | CCc1c(C(=O)O)c(S(N)(=O)=O)c(CC)n1N [Compound X3a] | – | – | – | 0.031 mg/L | 0.5 mg/L | 4 mg/L | 21.4 µM | 22.1 µM | 1.97 µM | decreases the MICs | inhibits β-lactamase activity | –
12 | Cc1c(C(=O)O)c(S(N)(=O)=O)c(C)n1C [Compound E] | 1.23 µM | 9.08 µM | 0.42 µM | – | – | – | – | – | – | – | – | –
13 | Cc1c(C(=O)O)c(S(N)(=O)=O)c(C)n1-c1ccccc1 [Compound D] | 7.51 µM | 10.2 µM | 20.8 µM | – | – | – | – | – | – | – | – | –
14 | C[C@@H](O)[C@H]1C(=O)N2C(C(=O)O)=C(S[C@@H]3CN[C@H](C(=O)N(C)C)C3)[C@H](C)[C@H]12 [MPM, meropenem, reference compound] | – | – | – | – | – | – | – | – | – | – | – | MIC ([4]; read-out: MIC MPM): 0.5 mg/L (≈ 1.3 µM); MIC ([4]; read-out: Meropenem MIC IMP1-producing strain, No inhibitor): 2 mg/L (≈ 5.22 µM); MIC IMP-1 meropenem, None [4, 18]: 1 mg I^−1; MIC ([5]; read-out: Meropenem MIC NDM-1-producing strain, No inhibitor): 4 mg/L (≈ 10.4 µM); MIC NDM-1 meropenem, None [5, 18]: 64 mg I^−1; MIC ([6]; read-out: MIC MPM): 0.063 mg/L (≈ 0.164 µM); MIC ([10]; read-out: MIC MPM): 0.016 mg/L (≈ 0.0417 µM)
15 | CCc1c(S(N)(=O)=O)c(C(=O)O)c(-c2ccccc2)n1C [Compound X2d] | – | – | – | 0.031 mg/L | 0.0625 mg/L | 1 mg/L | 0.11 µM | 0.08 µM | 0.033 µM | decreases the MICs | inhibits β-lactamase activity | survival rate (FIG. 13) [11]: notably improved
16 | Cc1oc(C)c(S(=O)(=O)N2CC3CCCC3C2)c1C(=O)O (centres unmarked) [9-7] | – | – | – | – | – | – | – | – | – | – | – | β-lactamase activity inhibition (statement on Table 3) [9]: inhibits β-lactamase activity
17 | CCc1c(C(=O)O)c(S(N)(=O)=O)c(C(C)C)n1C [Compound X4] | – | – | – | 0.031 mg/L | 0.5 mg/L | 1 mg/L | 0.9 µM | 4.3 µM | 0.017 µM | decreases the MICs | inhibits β-lactamase activity | –
18 | NS(=O)(=O)c1c(C2CCCC2)oc(C2CCCC2)c1C(=O)O [Compound H] | 1.27 µM | 0.18 µM | 0.76 µM | – | – | – | – | – | – | – | – | –
